# Experimental data published in PMC9536293, “Targeting extracellular matrix remodeling sensitizes glioblastoma to ionizing radiation” (Neuro-Oncology Advances, 2022).
# B1: recombinant MMP2: Recombinant MMP2 purchased from R&D Systems, used at 10 ng/ml (protein, UniProt P08253 110-660, looked up)
# 72 kDa type IV collagenase: YNFFPRKPKWDKNQITYRIIGYTPDLDPETVDDAFARAFQVWSDVTPLRFSRIHDGEADIMINFGRWEHGDGYPFDGKDGLLAHAFAPGTGVGGDSHFDDDELWTLGEGQVVRVKYGNADGEYCKFPFLFNGKEYNSCTDTGRSDGFLWCSTTYNFEKDGKYGFCPHEALFTMGGNAEGQPCKFPFRFQGTSYDSCTTEGRTDGYRWCGTTEDYDRDKKYGFCPETAMSTVGGNSEGAPCVFPFTFLGNKYESCTSAGRSDGKMWCATTANYDDDRKWGFCPDQGYSLFLVAAHEFGHAMGLEHSQDPGALMAPIYTYTKNFRLSQDDIKGIQELYGASPDIDLGTGPTPTLGPVTPEICKQDIVFDGIAQIRGEIFFFKDRFIWRTVTPRDKPMGPLLVATFWPELPEKIDAVYEAPQEEKAVFFAGNEYWIYSASTLERGYPKPLTSLGLPPDVQRVDAAFNWSKNKKTYIFAGDKFWRYNEVKKKMDPGFPKLIADAWNAIPDNLDAVVDLQGGGHSYFFKGAYYLKLENQSLKSVKFGSIKSDWLGC
# Key:
# Glioblastoma (GBM) = system: Glioblastoma (GBM); parameters: method as in PMID 32478924; settings: added to radiotherapy; GBM patients; on average; cited from earlier work
# 913-GSCs = assay: Invasion through a Matrigel/HA matrix (XCELLigence); type: cell-based, human; settings: shMT1-MMP 913-GSCs; 10 ng/ml
# Procedure: XCELLigence.—Invasion was performed as per the manufacturer’s instructions. Briefly, 10^4 913-GSCs and GBM1 cells were plated on top of uncoated or 0.4% Growth Factor Reduced Matrigel/10 µg/ml hyaluronic acid (HA) coated wells (CIM plate 16). HA was used as it is a major component of brain ECM. Cells were left at room temperature for 30 min to settle and then the plates were placed into an xCELLigence RTCA DP instrument (ACEA Bioscience). Measurements were taken every 15 min for 48 h or up to 6 days. Cell Index (CI) curves normalized to initial seeding were recorded. 3D Decellularized Brain matrix: 10^4 913-GSC cells were embedded in a 3D decellularized mouse brain matrix, derived as in,[16],[17] which retains the architecture and major components of brain ECM. Briefly, Nu/nu mouse brains were cut into small pieces and submerged in decellularizing solution [0.1% (v/v) ammonium hydroxide (Sigma) and 1% (v/v) Triton X-100 (Sigma) in distilled water] for 2 days. After washing in distilled water, the derived ECM was digested with pepsin (1 mg/ml; Sigma) in HCl (0.01 N) for 2 days at room temperature until visible ECM particle disappeared. To make hydrogels, the ECM solution was mixed with 10 × PBS, dilute to the desired final concentration (20 mg/ml) with ice-cold distilled water and adjust to pH7 by NaOH (1 M). […] Invadopodia length was measured and quantified with ImageJ.
Molecule,increase in survival compared to radiotherapy alone (Glioblastoma (GBM)),invasion of MT1-MMP depleted cells through Matrigel/HA matrix (913-GSCs)
"Cn1nnc2c(C(N)=O)ncn2c1=O [TMZ, temozolomide]",2.5 months,–
B1,–,restored the cells invasive capacity to the levels of controls
